{
  "source": "patent US20240207263A1",
  "about": "“SELECTIVE MODULATORS OF ATAXIA TELA[…] (ATM) KINASE AND USES THEREOF” (priority 2021, published 2024)",
  "note": "pIC50: −log10 of the molar value.",
  "data": [
    {"biological_target": "ATM (Homo sapiens (Human), UniProt Q13315)", "sequence (Q13315 whole entry, looked up)": "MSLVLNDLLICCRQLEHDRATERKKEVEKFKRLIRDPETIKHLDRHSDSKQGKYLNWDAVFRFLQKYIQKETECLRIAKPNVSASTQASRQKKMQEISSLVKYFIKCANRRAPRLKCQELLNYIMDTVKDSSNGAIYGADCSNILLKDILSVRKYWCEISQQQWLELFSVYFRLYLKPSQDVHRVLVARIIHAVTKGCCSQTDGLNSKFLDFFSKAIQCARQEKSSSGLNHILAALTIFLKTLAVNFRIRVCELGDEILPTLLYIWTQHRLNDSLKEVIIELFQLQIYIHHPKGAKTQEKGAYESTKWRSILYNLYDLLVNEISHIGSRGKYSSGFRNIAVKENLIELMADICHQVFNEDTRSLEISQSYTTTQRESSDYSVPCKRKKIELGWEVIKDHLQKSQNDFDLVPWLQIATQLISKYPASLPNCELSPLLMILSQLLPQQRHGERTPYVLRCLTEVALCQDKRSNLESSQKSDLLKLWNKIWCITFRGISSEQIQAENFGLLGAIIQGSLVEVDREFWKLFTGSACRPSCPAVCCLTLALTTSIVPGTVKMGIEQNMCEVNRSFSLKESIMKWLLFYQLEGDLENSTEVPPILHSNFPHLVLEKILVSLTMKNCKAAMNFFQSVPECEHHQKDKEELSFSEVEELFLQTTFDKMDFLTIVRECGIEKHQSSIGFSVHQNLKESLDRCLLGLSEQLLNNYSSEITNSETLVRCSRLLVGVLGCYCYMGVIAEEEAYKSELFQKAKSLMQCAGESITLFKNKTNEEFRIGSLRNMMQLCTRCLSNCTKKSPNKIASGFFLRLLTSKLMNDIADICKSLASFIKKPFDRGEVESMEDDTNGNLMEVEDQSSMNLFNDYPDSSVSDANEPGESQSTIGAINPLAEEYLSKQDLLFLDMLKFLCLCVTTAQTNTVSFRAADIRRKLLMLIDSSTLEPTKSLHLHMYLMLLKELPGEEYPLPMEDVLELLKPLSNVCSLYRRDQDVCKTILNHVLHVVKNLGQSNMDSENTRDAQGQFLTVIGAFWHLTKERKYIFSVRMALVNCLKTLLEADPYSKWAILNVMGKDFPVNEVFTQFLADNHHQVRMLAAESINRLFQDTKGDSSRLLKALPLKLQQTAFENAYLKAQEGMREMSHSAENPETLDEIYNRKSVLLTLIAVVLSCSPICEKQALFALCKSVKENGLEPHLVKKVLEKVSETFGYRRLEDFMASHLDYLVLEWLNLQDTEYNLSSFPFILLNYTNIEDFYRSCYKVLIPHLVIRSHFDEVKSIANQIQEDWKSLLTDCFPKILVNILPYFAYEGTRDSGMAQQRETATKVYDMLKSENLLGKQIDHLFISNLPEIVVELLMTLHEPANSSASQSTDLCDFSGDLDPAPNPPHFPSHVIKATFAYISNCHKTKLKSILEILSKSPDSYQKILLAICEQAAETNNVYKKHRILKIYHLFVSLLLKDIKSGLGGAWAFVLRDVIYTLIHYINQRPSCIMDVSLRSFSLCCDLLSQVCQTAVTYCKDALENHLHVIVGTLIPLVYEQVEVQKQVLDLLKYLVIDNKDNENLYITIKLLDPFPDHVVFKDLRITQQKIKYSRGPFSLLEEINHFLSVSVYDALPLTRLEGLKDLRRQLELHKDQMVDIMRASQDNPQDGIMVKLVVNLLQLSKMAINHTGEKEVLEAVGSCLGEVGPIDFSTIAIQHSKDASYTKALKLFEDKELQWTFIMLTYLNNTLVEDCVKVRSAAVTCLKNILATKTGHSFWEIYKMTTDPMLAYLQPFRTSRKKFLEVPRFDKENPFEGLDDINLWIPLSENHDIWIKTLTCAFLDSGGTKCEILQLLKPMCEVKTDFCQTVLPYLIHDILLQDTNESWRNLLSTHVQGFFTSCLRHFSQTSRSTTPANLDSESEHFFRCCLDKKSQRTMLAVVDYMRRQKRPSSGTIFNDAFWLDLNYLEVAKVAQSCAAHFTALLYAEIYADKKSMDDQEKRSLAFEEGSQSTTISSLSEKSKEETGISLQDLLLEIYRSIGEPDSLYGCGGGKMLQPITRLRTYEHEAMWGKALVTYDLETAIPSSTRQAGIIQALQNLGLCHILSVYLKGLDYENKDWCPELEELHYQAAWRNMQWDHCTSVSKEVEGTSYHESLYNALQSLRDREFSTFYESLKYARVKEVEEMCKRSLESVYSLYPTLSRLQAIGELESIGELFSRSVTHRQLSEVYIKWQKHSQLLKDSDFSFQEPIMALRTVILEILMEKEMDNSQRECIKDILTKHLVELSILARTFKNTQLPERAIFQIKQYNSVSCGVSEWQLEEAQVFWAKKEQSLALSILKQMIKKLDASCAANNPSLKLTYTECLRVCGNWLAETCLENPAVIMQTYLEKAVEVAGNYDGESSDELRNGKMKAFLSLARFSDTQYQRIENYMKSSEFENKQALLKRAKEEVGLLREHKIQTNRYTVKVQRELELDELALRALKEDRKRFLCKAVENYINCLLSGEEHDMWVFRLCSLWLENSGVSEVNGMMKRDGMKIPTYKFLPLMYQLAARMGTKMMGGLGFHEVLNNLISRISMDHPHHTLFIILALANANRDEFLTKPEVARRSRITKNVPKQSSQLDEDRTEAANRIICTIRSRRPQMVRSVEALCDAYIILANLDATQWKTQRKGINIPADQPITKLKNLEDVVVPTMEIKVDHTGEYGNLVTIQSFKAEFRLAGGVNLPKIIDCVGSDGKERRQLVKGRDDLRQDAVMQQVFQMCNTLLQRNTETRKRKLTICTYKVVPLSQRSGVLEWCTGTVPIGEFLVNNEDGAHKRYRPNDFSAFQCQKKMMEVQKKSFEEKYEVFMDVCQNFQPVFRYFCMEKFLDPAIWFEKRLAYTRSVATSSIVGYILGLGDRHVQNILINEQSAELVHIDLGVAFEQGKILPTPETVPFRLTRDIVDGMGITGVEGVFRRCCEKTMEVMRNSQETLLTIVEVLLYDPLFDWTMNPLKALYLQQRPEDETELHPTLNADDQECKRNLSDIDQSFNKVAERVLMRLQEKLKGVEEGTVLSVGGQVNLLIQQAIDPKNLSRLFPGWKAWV", "assay": "biochemical", "format": "biochemical", "settings": "not given", "excerpt": "(§1) Assay a): ATM Biochemical Potency\n(§2) Data was collected by Caliper.", "values": [
      {"smiles": "CO[C@H]1C[C@H](n2c(=O)n(C)c3nnc4ccc(-c5ccc(COCCN6CCC7(CC7)C6)nc5)cc4c32)C1", "note": "[Example 159, 8-(6-((2-(5-azaspiro[2.4]heptan-5-yl)ethoxy)methyl)pyridin-3-yl)-1-(trans-3-methoxycyclobutyl)-3-methyl-1H-imidazo[4,5-c]cinnolin-2(3H)-one]", "pIC50": 7.69}
    ]},
    {"biological_target": "ATM (Homo sapiens (Human), UniProt Q13315)", "assay": "biochemical", "format": "biochemical", "settings": "read-out: ATM IC50", "excerpt": "as §1, §2", "values": [
      {"smiles": "C[C@@H](OCCN1CCC(C)(C#N)C1)c1ccc(-c2ccc3nnc4c(c3c2)n(C2CCOCC2)c(=O)n4C)cn1", "note": "(stereo partly drawn) [Example 130, 3-methyl-1-(2-((R)-1-(5-(3-methyl-2-oxo-1-(tetrahydro-2H-pyran-4-yl)-2,3-dihydro-1H-imidazo[4.5-c]cinnolin-8-yl)pyridin-2-yl)ethoxy)ethyl) pyrrolidine-3-carbonitrile]", "pIC50": 7.59},
      {"smiles": "CC(C)n1c(=O)n(C)c2nnc3cc(F)c(-c4ccc(COCCN5CCC(C)(C)C5)nc4)cc3c21", "note": "[Example 132, 8-(6-((2-(3,3-dimethylpyrrolidin-1-yl)ethoxy)methyl)pyridin-3-yl)-7-fluoro-1-isopropyl-3-methyl-1H-imidazo[4,5-c]cinnolin-2(3H)-one]", "pIC50": 7.66},
      {"smiles": "CC(C)n1c(=O)n(C)c2nnc3cc(F)c(-c4ccc([C@@H](C)OCCN5CCC(F)CC5)nc4)cc3c21", "note": "[Example 136, (R)-7-fluoro-8-(6-(1-(2-(4-fluoropiperidin-1-yl)ethoxy)ethyl)pyridin-3-yl)-1-isopropyl-3-methyl-1,3-dihydro-2H-imidazo[4,5-c]cinnolin-2-one]", "pIC50": 8.00},
      {"smiles": "CO[C@H]1CCN(CCO[C@H](C)c2ccc(-c3cc4c(cc3F)nnc3c4n(C(C)C)c(=O)n3C)cn2)C1", "note": "[Example 138, 7-fluoro-1-isopropyl-8-(6-((R)-1-(2-((S)-3-methoxypyrrolidin-1-yl)ethoxy)ethyl)pyridin-3-yl)-3-methyl-1H-imidazo[4,5-c]cinnolin-2(3H)-one]", "pIC50": 7.85},
      {"smiles": "CC(C)n1c(=O)n(C)c2nnc3cc(F)c(-c4ccc([C@@H](C)OCCN5CCC(C)(C)CC5)nc4)cc3c21", "note": "[Example 139, (R)-8-(6-(1-(2-(4,4-dimethylpiperidin-1-yl)ethoxy)ethyl)pyridin-3-yl)-7-fluoro-1-isopropyl-3-methyl-1H-imidazo[4,5-c]cinnolin-2(3H)-one]", "pIC50": 8.55},
      {"smiles": "CC(C)n1c(=O)n(C)c2nnc3cc(F)c(-c4ccc([C@@H](C)OCCN5CCC(OC(F)(F)F)C5)nc4)cc3c21", "note": "(stereo partly drawn) [Example 141, 7-fluoro-1-isopropyl-3-methyl-8-(6-((1R)-1-(2-(3-(trifluoromethoxy)pyrrolidin-1-yl)ethoxy)ethyl)pyridin-3-yl)-1H-imidazo[4,5-c]cinnolin-2(3H)-one]", "pIC50": 8.20},
      {"smiles": "CC(C)n1c(=O)n(C)c2nnc3cc(F)c(-c4ccc([C@@H](C)OCCN5CC6CC6C5)nc4)cc3c21", "note": "(stereo partly drawn) [Example 143, 8-(6-((1R)-1-(2-(3-azabicyclo[3.1.0]hexan-3-yl)ethoxy)ethyl)pyridin-3-yl)-7-fluoro-1-isopropyl-3-methyl-1H-imidazo[4,5-c]cinnolin-2(3H)-one]", "pIC50": 7.96},
      {"smiles": "CC(C)n1c(=O)n(C)c2nnc3cc(F)c(-c4ccc([C@@H](C)OCCN5CCC(C)(C#N)C5)nc4)cc3c21", "note": "(stereo partly drawn) [Example 147, 1-(2-((R)-1-(5-(7-fluoro-1-isopropyl-3-methyl-2-oxo-2,3-dihydro-1H-imidazo[4,5-c]cinnolin-8-yl)pyridin-2-yl)ethoxy)ethyl)-3-methylpyrrolidine-3-carbonitrile]", "pIC50": 7.64},
      {"smiles": "C[C@@H](OCCN1CCC(C)(C)CC1)c1ccc(-c2cc3c(cc2F)nnc2c3n(C3CCOCC3)c(=O)n2C)cn1", "note": "[Example 149, (R)-8-(6-(1-(2-(4,4-dimethylpiperidin-1-yl)ethoxy)ethyl)pyridin-3-yl)-7-fluoro-3-methyl-1-(tetrahydro-2H-pyran-4-yl)-1H-imidazo[4,5-c]cinnolin-2(3H)-one]", "pIC50": 7.82},
      {"smiles": "C[C@@H](OCCN1CCC2(CC1)CC2)c1ccc(-c2cc3c(cc2F)nnc2c3n(C3CCOCC3)c(=O)n2C)cn1", "note": "[Example 154, (R)-8-(6-(1-(2-(6-azaspiro[2.5]octan-6-yl)ethoxy)ethyl)pyridin-3-yl)-7-fluoro-3-methyl-1-(tetrahydro-2H-pyran-4-yl)-1H-imidazo[4,5-c]cinnolin-2(3H)-one]", "pIC50": 8.44},
      {"smiles": "C[C@@H](OCCN1CC[C@@H](OC(F)F)C1)c1ccc(-c2cc3c(cc2F)nnc2c3n(C3CCOCC3)c(=O)n2C)cn1", "note": "[Example 155, 8-(6-((R)-1-(2-((R)-3-(difluoromethoxy)pyrrolidin-1-yl)ethoxy)ethyl)pyridin-3-yl)-7-fluoro-3-methyl-1-(tetrahydro-2H-pyran-4-yl)-1H-imidazo[4,5-c]cinnolin-2(3H)-one]", "pIC50": 7.96},
      {"smiles": "C[C@@H](OCCN1CCC2(CCC2)CC1)c1ccc(-c2cc3c(cc2F)nnc2c3n(C3CCOCC3)c(=O)n2C)cn1", "note": "[Example 156, (R)-8-(6-(1-(2-(7-azaspiro[3.5]nonan-7-yl)ethoxy)ethyl)pyridin-3-yl)-7-fluoro-3-methyl-1-(tetrahydro-2H-pyran-4-yl)-1H-imidazo[4,5-c]cinnolin-2(3H)-one]", "pIC50": 8.22},
      {"smiles": "CO[C@H]1C[C@H](n2c(=O)n(C)c3nnc4ccc(-c5ccc([C@@H](C)OCCN6CCC7(CC7)C6)nc5)cc4c32)C1", "note": "[Example 161, 8-(6-((R)-1-(2-(5-azaspiro[2.4]heptan-5-yl)ethoxy)ethyl)pyridin-3-yl)-1-(trans-3-methoxycyclobutyl)-3-methyl-1H-imidazo[4,5-c]cinnolin-2(3H)-one]", "pIC50": 8.47},
      {"smiles": "CO[C@@H]1CCN(CCO[C@H](C)c2ccc(-c3ccc4nnc5c(c4c3)n([C@H]3C[C@H](OC)C3)c(=O)n5C)cn2)C1", "note": "[Example 163, 1-(trans-3-methoxycyclobutyl)-8-(6-((R)-1-(2-((R)-3-methoxypyrrolidin-1-yl)ethoxy)ethyl)pyridin-3-yl)-3-methyl-1H-imidazo[4,5-c]cinnolin-2(3H)-one]", "pIC50": 8.10},
      {"smiles": "CO[C@H]1C[C@H](n2c(=O)n(C)c3nnc4ccc(-c5ccc([C@@H](C)OCCN6CCC7(CC6)CC7)nc5)cc4c32)C1", "note": "[Example 164, 8-(6-((R)-1-(2-(6-azaspiro[2.5]octan-6-yl)ethoxy)ethyl)pyridin-3-yl)-1-(trans-3-methoxycyclobutyl)-3-methyl-1H-imidazo[4,5-c]cinnolin-2(3H)-one]", "pIC50": 8.66},
      {"smiles": "CO[C@H]1C[C@H](n2c(=O)n(C)c3nnc4ccc(-c5ccc(COCCN(C)C)nc5)cc4c32)C1", "note": "[Example 165, 8-(6-((2-(dimethylamino)ethoxy)methyl)pyridin-3-yl)-1-(trans-3-methoxycyclobutyl)-3-methyl-1H-imidazo[4,5-c]cinnolin-2(3H)-one]", "pIC50": 7.00},
      {"smiles": "CO[C@H]1C[C@H](n2c(=O)n(C)c3nnc4ccc(-c5ccc(COCCN6CCCC6)nc5)cc4c32)C1", "note": "[Example 166, 1-(trans-3-methoxycyclobutyl)-3-methyl-8-(6-((2-(pyrrolidin-1-yl)ethoxy)methyl)pyridin-3-yl)-1H-imidazo[4,5-c]cinnolin-2(3H)-one]", "pIC50": 7.24},
      {"smiles": "CO[C@H]1C[C@H](n2c(=O)n(C)c3nnc4ccc(-c5ccc(COCCN6CCC(F)CC6)nc5)cc4c32)C1", "note": "[Example 168, 8-(6-((2-(4-fluoropiperidin-1-yl)ethoxy)methyl)pyridin-3-yl)-1-(trans-3-methoxycyclobutyl)-3-methyl-1H-imidazo[4,5-c]cinnolin-2(3H)-one]", "pIC50": 7.32}
    ]}
  ]
}
